In patent US20240270748A1 (Merck Patent GmbH, priority 2021, published 2024):
Structures can show the parent of a compound that is named as a salt.

System: YAP-TEAD interaction
Experiment: SK-HEP-1 reporter assay (8xTEAD responsive elements driving NanoLuc luciferase)
Format: cell-based
Conditions: Homo sapiens, SK-HEP1, SK-HEP-1 reporter assay; class symbols
Method: To identify inhibitors of YAP-TEAD interaction, 8×TEAD responsive elements driving the NanoLuc® luciferase gene were stably integrated into SK-HEP-1 cells (ECACC #: 91091816).
For the assay, cells were treated in duplicates with the test compounds in a 10-point dose, with the top concentration starting at 30 μM (final concentration in assay). After a 24 hour incubation at 37° C., 95% rH, and 5% CO2, a luciferase substrate/lysis reagent mix (NanoGlo™, Promega) was added to the cells, allowing the quantification of cellular luciferase activity.
Cell Media: The cells were cultured in the following media: MEM, +10% FBS, +1× GlutaMAX, +1 mM Sodium-Pyruvate, +100 μM Non-essential amino acids, +0.1 mg/ml Hygromycin. The media used for the assay was: MEM (w/o Phenol Red), +10% FBS, +1× GlutaMAX, +1 mM Sodium-Pyruvate, +100 μM Non-essential amino acids, +0.5% Pen/Strep
Reagents: The reagents used are listed below:
Cell culture: The cells were examined using an inverted microscope to check for health and cell density. To dissociate adherent cells, the monolayer of cells was washed once with pre-warmed PBS. After removing the PBS, 3 ml pre-warmed Accutase® was added to a F75 flask, dispersed evenly and the flask was allowed to sit in incubator for ˜4-5 minutes.
When a single cell suspension was obtained, 7 ml of prewarmed growth media was added and resuspended with the cells. The cell suspension was transferred to a sterile 15 ml conical centrifuge tube, and spun for 5 min at 300×g, RT. The supernatant was discarded and the pellet was resuspended in 10 ml of pre-warmed growth media.
The total cell count was determined, and 20 μl of the desired cell number was added to each well of a 384 well plate using a Multidrop Combi. The plates were then incubated for 24 hours at 37° C., 95% rH, and 5% C02.
Compound treatment: 24 hours after seeding, the cells were treated with compounds.
A 1:333 dilution of compounds, diluted in DMSO, was made to get a final concentration of 0.3% DMSO per well. To transfer the compounds to the assay plate, […] was shot from Labcyte low dead volume plates to the cell plates containing 20 μl media/well with the ECHO 555 liquid handling system.
After treatment, the cells were fed with 20 μl fresh pre-warmed assay media using a Multidrop combi.
The assay plates were then incubated for another 24 h at 37° C., 95% rH, and 5% CO2.
Luciferase readout: 24 h after treatment, the plates were taken out of the incubator and were allowed to equilibrate to RT. 30 μl of NanoGlo® reagent was added to the plates in the dark. Plates were shaken for 20 min on a Teleshake (˜1500 rpm) in the dark. The luminescence was then measured using an EnVision microplate reader. The IC50 values were generated using Genedata Screener®.

IC50 | SMILES
0.1 to 10 µM | Cn1cc2c3cc(C(=O)NC(CO)c4nncn4C)ccc3n(-c3ccc(C(F)(F)F)cc3)c2n1 (stereo not shown) [Example C267, N-[2-hydroxy-1-(4-methyl-4H-1,2,4-triazol-3-yl)ethyl]-2-methyl-8-[4-(trifluoromethyl)phenyl]-2H,8H-pyrazolo[3,4-b]indole-5-carboxamide]
> 10 µM | Cn1cc2c(n1)c1cc(S(=O)(=O)N3CCC[C@H]3c3cccnc3)ccc1n2-c1ccc(C(F)(F)F)cc1 (single isomer, unassigned) [Example C14]
0.1 to 10 µM | Cn1cnc2c1c1cc(C3CC(n4nccn4)=NO3)ccc1n2-c1ccc(C(F)(F)F)cc1 (stereo not shown) [Example C212, 2-(5-{1-methyl-4-[4-(trifluoromethyl)phenyl]-1H,4H-imidazo[4,5-b]indol-7-yl}-4,5-dihydro-1,2-oxazol-3-yl)-2H-1,2,3-triazole]
0.1 to 10 µM | Cn1cc2c3cc(NC(=O)CC4CCNC4)ccc3n(-c3ccc(C(F)(F)F)cc3)c2n1 (stereo not shown) [Example C223, N-{2-methyl-8-[4-(trifluoromethyl)-phenyl]-2H,8H-pyrazolo[3,4-b]indol-5-yl}-2-(pyrrolidin-3-yl)acetamide]
0.1 to 10 µM | CC(NC(=O)c1ccc2c(c1)c1cn(C)nc1n2-c1ccc(C(F)(F)F)cc1)c1c[nH]nn1 (stereo not shown) [Example B5]
0.1 to 10 µM | Cn1nc2c3cc(C4CC(n5ccnn5)=NO4)ccc3n(-c3ccc(C(F)(F)F)cc3)c2n1 (stereo not shown) [Example C232, 1-(5-{2-methyl-4-[4-(trifluoromethyl)phenyl]-3H,4H-[1,2,3]triazolo[4,5-b]indol-7-yl}-4,5-dihydro-1,2-oxazol-3-yl)-1H-1,2,3-triazole]
0.1 to 10 µM | Cn1cc2c3cc(NC(=O)CC4CNC4)ccc3n(-c3ccc(C(F)(F)F)cc3)c2n1 [Example C244, 2-(azetidin-3-yl)-N-{2-methyl-8-[4-(trifluoromethyl)phenyl]-2H,8H-pyrazolo[3,4-b]indol-5-yl}acetamide formate]
> 10 µM | Cn1cc2c3cc(NC(=O)Cc4ccccn4)ccc3n(-c3ccc(C(F)(F)F)cc3)c2n1 [Example C22, N-{2-methyl-8-[4-(trifluoromethyl)-phenyl]-2H,8H-pyrazolo[3,4-b]indol-5-yl}-2-(pyridin-2-yl)acetamide]
0.1 to 10 µM | Cn1cc2c3cc(C(=O)N=S4(=O)CC(C#N)C4)ccc3n(-c3ccc(C(F)(F)F)cc3)c2n1 (stereo not shown) [Example C178, N-(3-cyano-1-oxo-1¿6-thietan-1-ylidene)-2-methyl-8-[4-(trifluoromethyl)phenyl]-2H,8H-pyrazolo[3,4-b]indole-5-carboxamide]
0.1 to 10 µM | CNCCC(=O)Nc1ccc2c(c1)c1cn(C)nc1n2-c1ccc(C(F)(F)F)cc1 [Example C222, N-{2-methyl-8-[4-(trifluoromethyl)-phenyl]-2H,8H-pyrazolo[3,4-b]indol-5-yl}-3-(methylamino)propanamide]
0.1 to 10 µM | Cn1cc2c3cc(NC(=O)CCN)ccc3n(-c3ccc(C(F)(F)F)cc3)c2n1 [Example C221, 3-amino-N-{2-methyl-8-[4-(trifluoromethyl)phenyl]-2H,8H-pyrazolo[3,4-b]indol-5-yl}propanamide]
0.1 to 10 µM | Cn1nc2c3cc(C(=O)N=[S@@](=O)(CCO)Cc4ccncc4)ccc3n(-c3ccc(C(F)(F)F)cc3)c2n1 (single isomer, unassigned) [Example C266]

The remaining lines, values behind:

SMILES | IC50
C[C@@H](CCN)NC(=O)c1ccc2c(c1)c1cn(C)nc1n2-c1ccc(C(F)(F)F)cc1 [Example C26, N-[(2S)-4-aminobutan-2-yl]-2-methyl-8-[4-(trifluoromethyl)phenyl]-2H,8H-pyrazolo[3,4-b]indole-5-carboxamide] | 0.1 to 10 µM
CC(NC(=O)c1ccc2c(c1)c1cn(C)nc1n2-c1ccc(C(F)(F)F)cc1)c1cccc(N)n1 (single isomer, unassigned) [Example C186] | 0.1 to 10 µM
CNC(=O)c1ccc2c(c1)c1cn(C)nc1n2C1CC2(C1)CC(F)(F)C2 [Example C206, 8-{6,6-difluorospiro[3.3]heptan-2-yl}-N,2-dimethyl-2H,8H-pyrazolo[3,4-b]indole-5-carboxamide] | 0.01 to 0.1 µM
Cn1cc2c3cc(C(=O)OCCS(C)(=N)=O)ccc3n(-c3ccc(C(F)(F)F)cc3)c2n1 (stereo not shown) [Example C29, 2-[imino(methyl)oxo-λ^6-sulfanyl]ethyl 2-methyl-8-[4-(trifluoromethyl)phenyl]-2H,8H-pyrazolo[3,4-b]indole-5-carboxylate] | 0.01 to 0.1 µM
Cn1cc2c3cc(C(=O)NC[C@@H](O)C(F)(F)F)ccc3n(-c3ccc(C(F)(F)F)cc3)c2n1 [Example C135, 2-methyl-N-[(2R)-3,3,3-trifluoro-2-hydroxypropyl]-8-[4-(trifluoromethyl)phenyl]-2H,8H-pyrazolo[3,4-b]indole-5-carboxamide] | 0.1 to 10 µM
Cn1cc2c3cc(C(=O)NC4CCNCC4(F)F)ccc3n(-c3ccc(C(F)(F)F)cc3)c2n1 (stereo not shown) [Example C217, N-(3,3-difluoropiperidin-4-yl)-2-methyl-8-[4-(trifluoromethyl)phenyl]-2H,8H-pyrazolo[3,4-b]indole-5-carboxamide] | > 10 µM
Cn1cc2c3cc(C(=O)NC4CCNCC4)ccc3n(-c3ccc(C(F)(F)F)cc3)c2n1 [Example C203, 2-methyl-N-(piperidin-4-yl)-8-[4-(trifluoromethyl)phenyl]-2H,8H-pyrazolo[3,4-b]indole-5-carboxamide trifluoroacetate] | 0.1 to 10 µM
Cc1snc2c1c1cc(C(=O)NC[C@H](O)C(F)(F)F)ccc1n2-c1ccc(C(F)(F)F)cc1 [Example C55, 3-methyl-N-[(2S)-3,3,3-trifluoro-2-hydroxypropyl]-8-[4-(trifluoro-methyl)phenyl]-8H-[1,2]thiazolo[3,4-b]indole-5-carboxamide] | 0.1 to 10 µM
COCCNC(=O)c1ccc2c(n1)c1cn(C)nc1n2-c1ccc(C(F)(F)F)cc1 [Example C112, N-(2-methoxyethyl)-4-methyl-7-[4-(trifluoromethyl)phenyl]-4,5,7,12-tetraazatricyclo [6.4.0.0^2,6]dodeca-1(8),2,5,9,11-pentaene-11-carboxamide] | 0.1 to 10 µM
Cc1noc(C(CO)NC(=O)c2ccc3c(c2)c2cn(C)nc2n3-c2ccc(C(F)(F)F)cc2)n1 (stereo not shown) [Example C268, N-[2-hydroxy-1-(3-methyl-1,2,4-oxadiazol-5-yl)ethyl]-2-methyl-8-[4-(trifluoromethyl)phenyl]-2H,8H-pyrazolo[3,4-b]indole-5-carboxamide] | 0.1 to 10 µM
Cc1snc2c1c1cc(C(=O)NC3(CO)CCC3)ccc1n2-c1ccc(C(F)(F)F)cc1 [Example C82, N-[1-(hydroxymethyl)cyclobutyl]-3-methyl-8-[4-(trifluoromethyl)phenyl]-8H-[1,2]thiazolo[3,4-b]indole-5-carboxamide] | 0.1 to 10 µM
Cn1cc2c3cc(C(=O)N=S4(=O)CCC(C)(N)CC4)ccc3n(-c3ccc(C(F)(F)F)cc3)c2n1 (stereo not shown) [Example C139, N-(4-amino-4-methyl-1-oxo-1lambda6-thian-1-ylidene)-2-methyl-8-[4-(trifluoromethyl)phenyl]-2H,8H-pyrazolo[3,4-b]indole-5-carboxamide] | 0.1 to 10 µM

Same assay, conditions: Homo sapiens, SK-HEP1, SK-HEP-1 reporter assay; n.d. = value not detectable below threshold given in parentheses; ND = not determinable within the entire range

IC50 | SMILES
> 30 µM | Cn1cc2c3nc(C(=O)N=S(C)(=O)CCO)ccc3n(-c3ccc(C(F)(F)F)cc3)c2n1 (stereo not shown) [Example C109, N-[(2-hydroxyethyl)(methyl)oxo-λ^6-sulfanylidene]-4-methyl-7-[4-(trifluoromethyl)phenyl]-4,5,7,12-tetraazatricyclo [6.4.0.0^2,6]dodeca-1(8),2,5,9,11-pentaene-11-carboxamide]
> 10 µM | Cn1cc2c3cc(S(=O)(=O)N4CCCC4)ccc3n(-c3ccc(C(F)(F)F)cc3)c2n1 [Example C84, 1-({2-methyl-8-[4-(trifluoromethyl)phenyl]-2H,8H-pyrazolo[3,4-b]indol-5-yl}sulfonyl)pyrrolidine]
> 1 µM | Cn1cc2c(n1)c1cc(S(=O)(=O)N3C[C@@H](O)C[C@@H]3c3ccccc3)ccc1n2-c1ccc(C(F)(F)F)cc1 (single isomer, unassigned) [Example C45]

Same assay, conditions: SK-HEP-1 reporter assay; class symbols

IC50 | SMILES
0.1 to 10 µM | COCCC(CO)NC(=O)c1ccc2c(c1)c1cn(C)nc1n2-c1ccc(C(F)(F)F)cc1 (single isomer, unassigned) [Example C246]
